Reference: paper PMC4208094, “Optical control of insulin release using a photoswitchable sulfonylurea” (Nature Communications, 2014)

How the values were obtained:
[1] = molecular target: T1, SUR1 (Rattus norvegicus, UniProt Q09429); assay: [3H]-glibenclamide displacement in SUR1-expressing HEK293t cells under illumination; format: cell-based; set-up: gene Abcc8
Target sequence in this assay (Q09429 whole entry): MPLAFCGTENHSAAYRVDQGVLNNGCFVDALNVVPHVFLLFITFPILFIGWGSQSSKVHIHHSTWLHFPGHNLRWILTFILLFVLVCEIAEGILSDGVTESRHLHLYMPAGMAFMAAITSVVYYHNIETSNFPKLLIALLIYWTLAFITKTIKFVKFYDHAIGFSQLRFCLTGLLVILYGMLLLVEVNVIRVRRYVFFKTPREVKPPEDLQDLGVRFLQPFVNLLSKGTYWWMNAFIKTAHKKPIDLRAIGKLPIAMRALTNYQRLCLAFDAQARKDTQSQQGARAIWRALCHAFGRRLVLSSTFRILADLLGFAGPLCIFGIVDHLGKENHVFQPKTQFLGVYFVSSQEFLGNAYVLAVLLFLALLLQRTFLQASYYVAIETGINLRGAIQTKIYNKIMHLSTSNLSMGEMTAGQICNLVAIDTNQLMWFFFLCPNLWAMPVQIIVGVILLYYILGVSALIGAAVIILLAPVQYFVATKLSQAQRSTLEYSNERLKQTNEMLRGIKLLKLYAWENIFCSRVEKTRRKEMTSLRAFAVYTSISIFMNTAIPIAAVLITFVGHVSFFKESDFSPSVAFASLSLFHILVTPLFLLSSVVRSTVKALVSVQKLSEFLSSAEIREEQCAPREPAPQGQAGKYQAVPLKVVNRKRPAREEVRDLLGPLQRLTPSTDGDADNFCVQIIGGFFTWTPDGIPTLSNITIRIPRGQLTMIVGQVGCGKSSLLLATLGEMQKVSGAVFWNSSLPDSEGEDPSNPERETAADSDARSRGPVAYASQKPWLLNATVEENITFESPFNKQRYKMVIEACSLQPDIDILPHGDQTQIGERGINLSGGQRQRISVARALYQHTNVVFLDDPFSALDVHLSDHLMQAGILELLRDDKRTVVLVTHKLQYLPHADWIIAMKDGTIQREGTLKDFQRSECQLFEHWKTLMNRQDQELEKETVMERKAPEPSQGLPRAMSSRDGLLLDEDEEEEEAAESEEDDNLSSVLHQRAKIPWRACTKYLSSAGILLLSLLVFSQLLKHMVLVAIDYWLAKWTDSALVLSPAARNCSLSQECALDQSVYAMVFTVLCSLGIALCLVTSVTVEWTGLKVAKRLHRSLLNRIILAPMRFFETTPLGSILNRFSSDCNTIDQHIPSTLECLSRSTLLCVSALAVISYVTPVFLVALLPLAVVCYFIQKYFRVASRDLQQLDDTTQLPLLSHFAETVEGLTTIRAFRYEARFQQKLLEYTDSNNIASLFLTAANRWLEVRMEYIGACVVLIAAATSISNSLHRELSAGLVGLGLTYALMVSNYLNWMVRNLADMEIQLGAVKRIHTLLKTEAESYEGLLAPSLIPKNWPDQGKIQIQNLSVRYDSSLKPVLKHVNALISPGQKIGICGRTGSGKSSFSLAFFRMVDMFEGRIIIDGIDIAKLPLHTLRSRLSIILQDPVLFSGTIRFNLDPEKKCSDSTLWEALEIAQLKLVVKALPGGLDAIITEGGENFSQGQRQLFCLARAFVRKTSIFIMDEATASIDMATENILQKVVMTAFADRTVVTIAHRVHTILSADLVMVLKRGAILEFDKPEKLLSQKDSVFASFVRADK

[2] = molecular target: T1, SUR1; assay: whole-cell patch clamp of heterologous KATP channels, […] tolbutamide; format: cell-based; set-up: gene Abcc8; rat SUR1 (Genbank L40624) co-expressed with Kir6.2 in HEK293t cells; with Kir6.2
Target sequence in this assay (Q09429 whole entry): as above
Target sequence in this assay (Q61743 whole entry partner): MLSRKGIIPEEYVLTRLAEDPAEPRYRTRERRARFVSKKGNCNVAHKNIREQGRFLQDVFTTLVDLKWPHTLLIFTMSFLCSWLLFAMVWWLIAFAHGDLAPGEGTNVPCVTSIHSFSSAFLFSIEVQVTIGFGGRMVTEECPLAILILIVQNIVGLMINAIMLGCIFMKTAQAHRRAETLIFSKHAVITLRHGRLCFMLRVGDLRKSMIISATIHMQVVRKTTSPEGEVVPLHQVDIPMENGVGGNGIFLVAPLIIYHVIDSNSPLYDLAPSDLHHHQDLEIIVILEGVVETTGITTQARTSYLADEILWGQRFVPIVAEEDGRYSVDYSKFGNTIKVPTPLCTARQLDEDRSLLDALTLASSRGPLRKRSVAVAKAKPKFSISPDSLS

Row | IC50 [1] [µM] | Structure (SMILES) | KATP current response [2]
1 | 14.8 | CCN(CC)c1ccc(/N=N\c2ccc(S(=O)(=O)NC(=O)NC3CCCCC3)cc2)cc1 [JB253, (Z)-N-(cyclohexylcarbamoyl)-4-((4-(diethylamino)phenyl)diazenyl)benzenesulfonamide] | 
2 |  | CCCCNC(=O)NS(=O)(=O)c1ccc(C)cc1 [tolbutamide] | Tolbutamide and diazoxide-sensitive inward-rectifying K^+ currents could be recorded in transfected cells
